Assay results as given in the supplement of paper PMC10307832.

Legend:
Assay in all cases: relative viability (nuclei count vs DMSO), 5 days (fraction); higher = more cells survive
IPA-3 + Decitabine = compound: C1=CC=C2C(=C1)C=CC(=C2SSC3=C(C=CC4=CC=CC=C43)O)O [IPA-3] + Nc1ncn([C@H]2C[C@H](O)[C@@H](CO)O2)c(=O)n1 [Decitabine] (partner 2 µM)
Procedure, shortened: (§1)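 Relative viability was taken as the ratio of nuclei in treated wells to nuclei in vehicle wells. Lung cancer cell lines in 1536-well plates received compounds by pin tool one day after seeding, either one drug alone or a fixed anchor-drug dose plus five library-drug doses (not always all listed) in √10 steps. Nuclei were counted on 4× images after 5 days of treatment, and values are medians of duplicate plates.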

RAF265 + Bortezomib = compound: Cn1c(Nc2ccc(C(F)(F)F)cc2)nc2cc(Oc3ccnc(-c4ncc(C(F)(F)F)[nH]4)c3)ccc21 [RAF265] + CC(C)C[C@H](NC(=O)[C@H](Cc1ccccc1)NC(=O)c1cnccn1)B(O)O [Bortezomib] (partner 0.002 µM)
Procedure, shortened: as §1

RAF265 + Trametinib = compound: Cn1c(Nc2ccc(C(F)(F)F)cc2)nc2cc(Oc3ccnc(-c4ncc(C(F)(F)F)[nH]4)c3)ccc21 [RAF265] + CC(=O)Nc1cccc(-n2c(=O)n(C3CC3)c(=O)c3c(Nc4ccc(I)cc4F)n(C)c(=O)c(C)c32)c1 [Trametinib] (partner 0.02 µM)
Procedure, shortened: as §1

Doramapimod + Dasatinib = compound: Cc1ccc(-n2nc(C(C)(C)C)cc2NC(=O)Nc2ccc(OCCN3CCOCC3)c3ccccc23)cc1 [Doramapimod] + Cc1nc(Nc2ncc(C(=O)Nc3c(C)cccc3Cl)s2)cc(N2CCN(CCO)CC2)n1 [Dasatinib] (partner 0.075 µM)
Procedure, shortened: as §1

Row | Cell Line | relative viability (IPA-3 + Decitabine; first compound 0.2 µM) | relative viability (IPA-3 + Decitabine; first compound 0.6325 µM) | relative viability (IPA-3 + Decitabine; first compound 2 µM) | relative viability (IPA-3 + Decitabine; first compound 6.325 µM) | relative viability (IPA-3 + Decitabine; first compound 20 µM) | relative viability (RAF265 + Bortezomib; first compound 0.01 µM) | relative viability (RAF265 + Bortezomib; first compound 0.03162 µM) | relative viability (RAF265 + Bortezomib; first compound 0.1 µM) | relative viability (RAF265 + Bortezomib; first compound 0.3162 µM) | relative viability (RAF265 + Bortezomib; first compound 1 µM) | relative viability (RAF265 + Trametinib; first compound 0.01 µM) | relative viability (RAF265 + Trametinib; first compound 0.03162 µM) | relative viability (RAF265 + Trametinib; first compound 0.1 µM) | relative viability (RAF265 + Trametinib; first compound 0.3162 µM) | relative viability (RAF265 + Trametinib; first compound 1 µM) | relative viability (Doramapimod + Dasatinib; first compound 0.02 µM) | relative viability (Doramapimod + Dasatinib; first compound 0.06325 µM) | relative viability (Doramapimod + Dasatinib; first compound 0.2 µM) | relative viability (Doramapimod + Dasatinib; first compound 0.6325 µM) | relative viability (Doramapimod + Dasatinib; first compound 2 µM)
1 | NCI-H647 | 0.502 | 0.396 | 0.397 | 0.206 | 0.134 | 0.949 | 0.806 | 0.686 | 0.58 | 0.426 | 0.46 | 0.451 | 0.277 | 0.222 | 0.19 | 0.179 | 0.19 | 0.157 | 0.21 | 0.147
2 | NCI-H1755 | 0.752 | 0.69 | 0.651 | 0.699 | 0.716 | 1.01 | 0.921 | 0.892 | 0.842 | 0.536 | 0.753 | 0.727 | 0.688 | 0.647 | 0.467 | 0.458 | 0.438 | 0.369 | 0.4 | 0.344
3 | EPLC-272H | 0.406 | 0.397 | 0.325 | 0.38 | 0.397 | 0.973 | 0.956 | 0.818 | 0.808 | 0.392 | 0.28 | 0.287 | 0.3 | 0.204 | 0.205 | 0.438 | 0.326 | 0.435 | 0.479 | 0.332
4 | NCI-H1437 | 0.601 | 0.515 | 0.543 | 0.596 | 0.581 | 0.541 | 0.528 | 0.419 | 0.56 | 0.343 | 0.544 | 0.552 | 0.505 | 0.716 | 0.493 | 0.466 | 0.459 | 0.437 | 0.596 | 0.323
5 | EKVX | 0.342 | 0.396 | 0.26 | 0.297 | 0.332 | 0.99 | 0.995 | 1.04 | 0.513 | 0.763 | 0.387 | 0.385 | 0.417 | 0.217 | 0.277 | 0.544 | 0.49 | 0.561 | 0.584 | 0.491
6 | NCI-H1651 | 0.699 | 0.596 | 0.631 | 0.644 | 0.549 | 0.981 | 0.978 | 0.974 | 0.897 | 0.932 | 0.797 | 0.808 | 0.795 | 0.796 | 0.734 | 0.481 | 0.458 | 0.449 | 0.54 | 0.32
7 | HCC-15 | 0.754 | 0.572 | 0.612 | 0.61 | 0.629 | 0.95 | 0.96 | 0.985 | 0.941 | 0.792 | 0.346 | 0.403 | 0.379 | 0.338 | 0.21 | 0.56 | 0.598 | 0.634 |  | 0.595
8 | LCLC-103H | 0.703 | 0.684 | 0.749 | 0.748 | 0.638 | 1.02 | 1.07 | 0.994 | 1 | 0.627 | 0.679 | 0.689 | 0.609 | 0.638 | 0.465 | 0.451 | 0.488 | 0.374 | 0.448 | 0.44
9 | NCI-H23 | 0.285 | 0.313 | 0.319 | 0.329 | 0.299 | 1.21 | 0.937 | 0.606 | 0.621 | 0.353 | 0.404 | 0.262 | 0.239 | 0.239 | 0.17 | 0.734 | 0.709 | 0.856 | 0.836 | 0.759
10 | NCI-H1792 | 0.72 | 0.46 |  | 0.492 | 0.568 | 0.985 | 0.889 | 0.905 | 0.837 | 0.574 | 0.485 | 0.408 | 0.361 | 0.218 | 0.0679 | 0.727 | 0.645 | 0.713 | 0.645 | 0.654
11 | NCI-H596 | 1.09 | 0.984 | 1.06 | 0.963 | 1.08 | 1.18 | 0.987 | 1.08 | 0.85 | 0.743 | 0.836 | 0.75 | 0.813 | 0.826 | 0.638 | 0.524 | 0.643 | 0.538 | 0.738 | 0.52
12 | NCI-H460 | 0.65 | 0.41 | 0.492 | 0.465 | 0.324 | 1.15 | 1.22 | 1.09 |  | 0.742 | 0.238 | 0.23 | 0.133 | 0.156 | 0.0601 | 0.445 | 0.499 | 0.488 | 0.535 | 0.437
13 | HCC-366 | 0.399 | 0.35 | 0.349 | 0.335 | 0.321 | 1.11 | 1.02 | 1.06 | 1 | 0.985 | 0.414 | 0.302 | 0.264 | 0.251 | 0.165 | 0.605 | 0.549 | 0.548 | 0.548 | 0.458
14 | NCI-H2085 | 0.58 | 0.568 | 0.56 | 0.502 | 0.459 | 1.1 | 0.985 | 1.14 | 1.1 | 0.987 | 0.45 | 0.524 | 0.514 | 0.511 | 0.545 | 0.253 | 0.252 | 0.221 | 0.28 | 0.201
15 | PC-14 | 0.29 | 0.152 | 0.226 | 0.187 | 0.144 | 0.798 | 0.726 | 0.886 | 0.953 | 0.693 | 0.814 | 0.711 | 0.716 |  | 0.447 | 0.282 | 0.274 | 0.28 | 0.341 | 0.243
16 | HOP-62 | 0.193 | 0.213 | 0.231 | 0.229 | 0.235 | 1.15 |  | 1.05 | 0.674 | 0.788 | 0.468 | 0.404 | 0.406 | 0.379 | 0.218 | 0.618 | 0.705 | 0.633 | 0.843 | 0.594
